PMC3958483, “Fine Specificity and Molecular Competition in SLAM Family Receptor Signalling” (PLoS ONE, 2014)
Like-named read-outs stand apart in the source and are kept apart here. Non-standard residues stand in square brackets, D forms with d. Residues, ends and D or L forms follow the SMILES beside them. *: point of attachment. Biotin = O=C1N[C@H]2[C@H](CS[C@H]2CCCCC(=O)*)N1; pY = N[C@@H](Cc1ccc(OP(=O)(O)O)cc1)C(=O)O

How the values were obtained:
EAT-2 = target: T1, EAT-2 (Homo sapiens, UniProt O14796); assay: SPR binding of EAT-2 to immobilised phosphopeptides; conditions: 37°C
T1 construct: His-tag; made in house; host or cells: E. coli BL21(DE3)pLysS
T1 sequence (O14796 1-132): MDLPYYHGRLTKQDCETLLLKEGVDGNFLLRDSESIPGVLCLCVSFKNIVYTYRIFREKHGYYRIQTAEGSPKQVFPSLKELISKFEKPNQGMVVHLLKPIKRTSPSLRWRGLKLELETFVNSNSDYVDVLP
Description: (§1) Biotinylated EAT-2 was produced by expression of full length human EAT-2 with a C-terminal BirA tag ([…]) in the E coli expression vector pTrcHisA. Constructs encoding the 6xHis-tagged tandem SH2 domains plus the SH3 domains of PLCγ1 (Swiss-Prot: P19174, aa 536–863) and PLCγ2 (Swiss-Prot: P16885, aa 519–838) were generated in pTrcHisA (5′ joining sequence with BglII site underlined: gag atc tcc translates as EIS). The molecular weight (MW) and theoretical extinction coefficients (EC) of recombinant PLCγ1 and PLCγ2 SH2-SH2-SH3 domains were PLCγ1; MW = 42531, EC = 63,830 M^−1 cm^−1 and PLCγ2; MW = 42415, EC = 67,270 M^−1 cm^−1.
Soluble recombinant proteins were produced in BL21(DE3)pLysS E. coli (Calbiochem) at 37°C in 2TY medium and induced at OD 600 = 0.6 with 0.1 mM IPTG for 4 h or in 2XYT auto-induction (Formedium) medium overnight. Bacterial pellets were resuspended in ∼0.1 volume 10 mM HEPES pH7.4, 150 mM NaCl and used immediately or stored at −20°C in 10 ml aliquots. His-tag mediated protein purification was performed on a Co^2+ or Ni^2+ column by standard protocols. […] Where applicable, proteins were stored frozen in 10–25 mM HEPES pH 7.4, 200–300 mM NaCl (pH 7.4).All proteins were purified by size exclusion chromatography immediately prior to SPR analysis.
Measurements of protein-protein affinity were performed on BIAcore 3000 and T200 systems using CM5 or biotin capture chips (GE Healthcare Ltd, UK). Streptavidin was coupled to CM5 sensor chips using standard NHS/EDC chemical linkage, followed by immobilization of biotinylated peptides. The levels of peptide immobilized were approximately 25 and 50 response units respectively of single and tandem tyrosine motifs to facilitate saturating binding and limitation of “bridging” [22], [45]. Purified recombinant proteins were passed over the immobilized peptides at a range of concentrations in HBS-EP buffer, 10 mM HEPES pH 7.4, 150 mM NaCl, 3.4 mM EDTA, 0.005% surfactant, P20. Equilibrium binding coefficients and dissociation and association rates were calculated using BIAevaluation and/or GraphPad Prism 5.4 software.
The specificities of their SH2 domains overlap, introducing the concept of competition between them for ITSMs in cells where they are co-expressed, including NK cells.

PLCγ1 (SH2-SH2-SH3) = target: T2, PLCγ1 (SH2-SH2-SH3) (Homo sapiens, UniProt P19174); assay: SPR binding of PLCγ1 SH2-SH2-SH3 to immobilised phosphopeptides; conditions: 37°C, ten two-fold dilutions, top concentration 1 μM, one-site specific binding model, curve shown in Figure 7B
T2 construct: PLCγ1 (Swiss-Prot: P19174, aa 536–863); 6xHis (N); made in house; host or cells: E. coli BL21(DE3)pLysS
T2 sequence (P19174 536-863): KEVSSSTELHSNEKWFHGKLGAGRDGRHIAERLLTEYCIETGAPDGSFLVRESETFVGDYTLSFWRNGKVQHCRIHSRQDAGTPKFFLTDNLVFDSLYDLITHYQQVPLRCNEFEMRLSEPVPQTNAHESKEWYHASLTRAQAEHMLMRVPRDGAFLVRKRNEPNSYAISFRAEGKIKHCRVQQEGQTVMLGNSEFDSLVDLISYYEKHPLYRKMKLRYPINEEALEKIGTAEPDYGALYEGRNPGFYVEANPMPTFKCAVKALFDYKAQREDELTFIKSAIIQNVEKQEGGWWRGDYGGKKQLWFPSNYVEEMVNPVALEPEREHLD
Description: as §1
(§2) Soluble recombinant proteins were produced in BL21(DE3)pLysS E. coli (Calbiochem) at 37°C in 2TY medium and induced at OD 600 = 0.6 with 0.1 mM IPTG for 4 h or in 2XYT auto-induction (Formedium) medium overnight. Bacterial pellets were resuspended in ∼0.1 volume 10 mM HEPES pH7.4, 150 mM NaCl and used immediately or stored at −20°C in 10 ml aliquots. His-tag mediated protein purification was performed on a Co^2+ or Ni^2+ column by standard protocols. […]
(§3) Measurements of protein-protein affinity were performed on BIAcore 3000 and T200 systems using CM5 or biotin capture chips (GE Healthcare Ltd, UK). […] Equilibrium binding coefficients and dissociation and association rates were calculated using BIAevaluation and/or GraphPad Prism 5.4 software. […]

PLCγ2 (SH2-SH2-SH3) = target: T3, PLCγ2 (SH2-SH2-SH3) (Homo sapiens, UniProt P16885); assay: SPR binding of PLCγ2 SH2-SH2-SH3 to immobilised phosphopeptides; conditions: KD (Figure 7B), 37°C, ten two-fold dilutions, top concentration 1 μM, one-site specific binding model, curve shown in Figure 7B
T3 construct: PLCγ2 (Swiss-Prot: P16885, aa 519–838); 6xHis (N); made in house; host or cells: E. coli BL21(DE3)pLysS
T3 sequence (P16885 519-838): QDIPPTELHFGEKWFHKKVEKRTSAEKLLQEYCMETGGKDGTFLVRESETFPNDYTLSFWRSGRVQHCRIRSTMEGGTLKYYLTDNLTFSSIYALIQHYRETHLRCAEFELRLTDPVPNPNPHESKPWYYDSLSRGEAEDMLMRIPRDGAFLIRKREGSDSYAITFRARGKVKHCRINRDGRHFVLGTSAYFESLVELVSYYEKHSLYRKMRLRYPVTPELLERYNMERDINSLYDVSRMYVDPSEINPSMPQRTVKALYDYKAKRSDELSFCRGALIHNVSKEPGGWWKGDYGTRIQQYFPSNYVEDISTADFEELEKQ
Description: as §1, §2, §3

SHIP SH2 from SHIP-1 = target: T4, SHIP SH2 from SHIP-1 (Homo sapiens, UniProt Q92835); assay: SPR binding of SHIP SH2 domain to immobilised phosphopeptides; conditions: 37°C, equilibrium binding analysis
T4 construct: the single SH2 domain from SHIP-1; His-tag; made in house; host or cells: E. coli BL21(DE3)pLysS
T4 sequence (Q92835 5-101 limits assumed): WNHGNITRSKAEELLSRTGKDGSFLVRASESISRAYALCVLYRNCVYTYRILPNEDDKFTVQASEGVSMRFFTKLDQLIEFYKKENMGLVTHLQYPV
Description: as §1
Measurements of protein-protein affinity were performed on BIAcore 3000 and T200 systems using CM5 or biotin capture chips (GE Healthcare Ltd, UK). Streptavidin was coupled to CM5 sensor chips using standard NHS/EDC chemical linkage, followed by immobilization of biotinylated peptides. The levels of peptide immobilized were approximately 25 and 50 response units respectively of single and tandem tyrosine motifs to facilitate saturating binding and limitation of “bridging” [22], [45]. […] Equilibrium binding coefficients and dissociation and association rates were calculated using BIAevaluation and/or GraphPad Prism 5.4 software. […]

[1] = ten two-fold dilutions, top concentration 0.3 μM, one-site specific binding model, curve shown in Figure 2B, read-out: KD (Figure 2B)

CC[C@H](C)[C@H](NC(=O)[C@@H](NC(=O)[C@H](CC(C)C)NC(=O)[C@H](Cc1ccccc1)NC(=O)[C@H](CCC(=O)O)NC(=O)CCCC[C@@H]1SC[C@@H]2NC(=O)N[C@@H]21)[C@@H](C)O)C(=O)N[C@@H](Cc1ccc(OP(=O)(O)O)cc1)C(=O)N[C@@H](CCC(=O)O)C(=O)N[C@@H](CC(=O)O)C(=O)N[C@H](C(=O)N[C@@H](CCCCN)C(=O)N[C@@H](CC(=O)O)C(=O)O)C(C)C [CD244 ITSM1]
Kd (EAT-2; HBS-EP pH 7.4, soluble EAT-2, immobilised phosphopeptide, mean, n and range in own columns of Table 4, read-out: KD): 60 nM | Kd (EAT-2; [1]): 12 nM | Kd (PLCγ1 (SH2-SH2-SH3)): 130 nM | Kd (PLCγ2 (SH2-SH2-SH3)): 360 nM

CC[C@H](C)[C@H](NC(=O)[C@H](CCSC)NC(=O)[C@H](CO)NC(=O)[C@H](Cc1ccc(OP(=O)(O)O)cc1)NC(=O)[C@@H](NC(=O)[C@@H](NC(=O)[C@H](CO)NC(=O)CNC(=O)CNC(=O)CCCC[C@@H]1SC[C@@H]2NC(=O)N[C@@H]21)[C@@H](C)O)[C@@H](C)CC)C(=O)N[C@@H](CCC(N)=O)C(=O)N[C@@H](CO)C(=O)O [CD244 ITSM2]
binding of SHIP SH2 domain (SHIP SH2 from SHIP-1): preference of SHIP SH2 domain

CC[C@H](C)[C@H](NC(=O)[C@H](CC(C)C)NC(=O)[C@H](CO)NC(=O)[C@H](Cc1ccc(OP(=O)(O)O)cc1)NC(=O)[C@H](CC(C)C)NC(=O)[C@@H](NC(=O)[C@H](Cc1ccc(O)cc1)NC(=O)[C@H](C)NC(=O)[C@@H]1CCCN1C(=O)CCCC[C@@H]1SC[C@@H]2NC(=O)N[C@@H]21)[C@@H](C)O)C(=O)N[C@@H](CCC(N)=O)C(=O)N1CCC[C@H]1C(=O)O [CD244 ITSM3] (Biotin-PAYTL[pY]SLIQP-OH; C-terminus assumed)
binding of SHIP SH2 domain (SHIP SH2 from SHIP-1): preference of SHIP SH2 domain

CC[C@H](C)[C@H](NC(=O)[C@H](CCC(=O)O)NC(=O)[C@@H](NC(=O)[C@@H](NC(=O)[C@H](CO)NC(=O)[C@H](Cc1ccc(OP(=O)(O)O)cc1)NC(=O)[C@@H](NC(=O)[C@@H](NC(=O)[C@H](CC(N)=O)NC(=O)[C@H](C)NC(=O)[C@@H]1CCCN1C(=O)CCCC[C@@H]1SC[C@@H]2NC(=O)N[C@@H]21)[C@@H](C)O)C(C)C)[C@@H](C)O)C(C)C)C(=O)O [CRACC ITSM2] (Biotin-PANTV[pY]STVEI-OH)
Kd (EAT-2; [1]): 1 nM

CC(C)C[C@H](NC(=O)[C@@H](NC(=O)[C@H](CC(=O)O)NC(=O)[C@@H](NC(=O)[C@H](Cc1ccc(OP(=O)(O)O)cc1)NC(=O)[C@H](CC(=O)O)NC(=O)[C@H](CO)NC(=O)[C@H](CC(N)=O)NC(=O)[C@H](CO)NC(=O)[C@H](CC(N)=O)NC(=O)CCCC[C@@H]1SC[C@@H]2NC(=O)N[C@@H]21)C(C)C)C(C)C)C(=O)N1CCC[C@H]1C(=O)O [EAT-2 Y127] (Biotin-NSNSD[pY]VDVLP-OH)
Kd (PLCγ1 (SH2-SH2-SH3)): 18 nM | Kd (PLCγ2 (SH2-SH2-SH3)): 87 nM
